{"source": "ChEMBL document CHEMBL5260828", "about": "“Amphiphilic glycoconjugates as potential anti-cancer chemotherapeutics” (Eur J Med Chem, 2018)", "key": {"K562 [1]": {"system": "K562", "test": "Antiproliferative activity against human K562 cells assessed as reduction in cell viability incubated for 48 hrs by CCK-8 assay", "type": "functional, cell-based", "conditions": "K562, 48 h"}, "MIA PaCa-2": {"system": "MIA PaCa-2", "test": "Cytotoxicity against human MIA PaCa-2 cells assessed as reduction in cell viability incubated for 48 hrs by MTS assay", "type": "functional, cell-based", "conditions": "MIA PaCa-2, time 48 hrs"}, "JIMT-1": {"system": "JIMT-1", "test": "Cytotoxicity against human JIMT-1 cells assessed as reduction in cell viability incubated for 48 hrs by MTS assay", "type": "functional, cell-based", "conditions": "JIMT-1, time 48 hrs"}, "MCF7 [2]": {"system": "MCF7", "test": "Antiproliferative activity against human MCF7 cells assessed as inhibition of cell growth incubated for 48 hrs", "type": "functional, cell-based", "conditions": "MCF7, 48 h, pooled result: one value given for 9 cell lines, strains, targets or settings"}, "BT-474": {"system": "BT-474", "test": "Cytotoxicity against human BT-474 cells assessed as reduction in cell viability incubated for 48 hrs by MTS assay", "type": "functional, cell-based", "conditions": "BT-474, time 48 hrs"}, "DU-145": {"system": "DU-145", "test": "Cytotoxicity against human DU-145 cells assessed as reduction in cell viability incubated for 48 hrs by MTS assay", "type": "functional, cell-based", "conditions": "DU-145, time 48 hrs"}, "NCI-H292": {"system": "NCI-H292", "test": "Cytotoxicity against human NCI-H292 cells assessed as reduction in cell viability incubated for 4 days by WST-1 assay", "type": "functional, cell-based", "conditions": "NCI-H292, 96 h"}, "Jurkat": {"system": "Jurkat", "test": "Inhibition of cell growth in human Jurkat cells at 25 ug/ml", "type": "functional"}, "NCI/ADR-RES": {"system": "NCI/ADR-RES", "test": "Growth inhibition of human multi-drug resistant MCF7/Adr cells incubated for 72 hrs by sulforhodamine B staining assay", "type": "functional"}, "L1210": {"system": "L1210", "test": "Growth inhibition of mouse L1210 cells incubated for 72 hrs by sulforhodamine B staining assay", "type": "functional"}, "MCF7 [3]": {"system": "MCF7", "test": "Growth inhibition of human MCF7 cells incubated for 72 hrs by sulforhodamine B staining assay", "type": "functional"}, "[4]": {"test": "Growth inhibition of mouse Lewis lung carcinoma cell line incubated for 72 hrs by sulforhodamine B staining assay", "type": "functional"}, "HeLa S3 [5]": {"system": "HeLa S3", "test": "Cytotoxicity against human HeLa S3 cells assessed as inhibition of cell proliferation incubated for 72 hrs by MTT assay", "type": "functional, cell-based", "conditions": "HeLa S3, 72 h"}, "[6]": {"biological_target": "Sarcoplasmic/endoplasmic reticulum calcium ATPase 1 (Oryctolagus cuniculus, UniProt P04191)", "sequence (P04191 whole entry)": "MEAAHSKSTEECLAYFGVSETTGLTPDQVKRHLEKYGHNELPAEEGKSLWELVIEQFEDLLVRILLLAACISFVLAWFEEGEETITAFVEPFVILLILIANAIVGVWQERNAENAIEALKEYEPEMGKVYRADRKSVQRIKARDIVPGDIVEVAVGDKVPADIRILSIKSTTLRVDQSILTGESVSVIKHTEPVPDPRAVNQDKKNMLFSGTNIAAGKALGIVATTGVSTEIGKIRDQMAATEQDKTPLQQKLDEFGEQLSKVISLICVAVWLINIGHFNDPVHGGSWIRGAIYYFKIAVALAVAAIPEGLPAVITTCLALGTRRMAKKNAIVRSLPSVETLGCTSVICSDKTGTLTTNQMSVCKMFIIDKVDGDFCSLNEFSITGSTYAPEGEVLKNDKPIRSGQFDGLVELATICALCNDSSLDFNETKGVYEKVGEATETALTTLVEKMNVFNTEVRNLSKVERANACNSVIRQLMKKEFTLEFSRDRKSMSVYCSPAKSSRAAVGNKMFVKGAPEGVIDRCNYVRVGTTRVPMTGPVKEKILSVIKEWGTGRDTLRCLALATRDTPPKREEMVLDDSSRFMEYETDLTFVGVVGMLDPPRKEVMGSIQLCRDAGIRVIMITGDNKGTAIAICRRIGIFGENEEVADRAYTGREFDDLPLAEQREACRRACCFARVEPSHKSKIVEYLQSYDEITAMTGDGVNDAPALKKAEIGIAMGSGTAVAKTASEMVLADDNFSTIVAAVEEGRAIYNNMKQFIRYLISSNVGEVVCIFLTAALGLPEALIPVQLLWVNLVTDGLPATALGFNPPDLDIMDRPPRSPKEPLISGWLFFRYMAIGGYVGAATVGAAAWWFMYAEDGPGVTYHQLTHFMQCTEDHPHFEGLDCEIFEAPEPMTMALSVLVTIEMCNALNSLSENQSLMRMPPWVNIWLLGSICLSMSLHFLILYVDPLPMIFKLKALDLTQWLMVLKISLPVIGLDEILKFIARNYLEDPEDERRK", "test": "Inhibition of SERCA1a in rabbit Sarcoplasmic reticulum assessed as inhibition constant in presence of [gamma-32P]ATP and calcium ionophore A23187 by coupled enzyme assay", "type": "subcellular"}, "HeLa": {"system": "HeLa", "test": "Cytotoxicity against human HeLa cells assessed as inhibition of cell growth incubated for 24 hrs by MTT assay", "type": "functional, cell-based"}, "Ca-Ski": {"system": "Ca-Ski", "test": "Cytotoxicity against human Ca-Ski cells assessed as inhibition of cell growth incubated for 24 hrs by MTT assay", "type": "functional, cell-based"}, "A549": {"system": "A549", "test": "Cytotoxicity against human A549 cells assessed as cell growth inhibition incubated for 24 hrs by MTT assay", "type": "functional, cell-based", "conditions": "A549, 24 h"}, "Col2": {"system": "Col2", "test": "Cytotoxicity against human Col2 cells assessed as cell growth inhibition incubated for 24 hrs by MTT assay", "type": "functional, cell-based", "conditions": "Col2, 24 h"}, "MDA-MB-231 [7]": {"system": "MDA-MB-231", "test": "Cytotoxicity against human MDA-MB-231 cells assessed as cell growth inhibition incubated for 24 hrs by MTT assay", "type": "functional, cell-based", "conditions": "MDA-MB-231, 24 h"}, "KB": {"system": "KB", "test": "Cytotoxicity against human KB cells assessed as cell growth inhibition incubated for 24 hrs by MTT assay", "type": "functional, cell-based"}, "K562 [8]": {"system": "K562", "test": "Cytotoxicity against human K562 cells assessed as cell growth inhibition incubated for 24 hrs by MTT assay", "type": "functional, cell-based", "conditions": "K562, 24 h"}, "HeLa S3 [9]": {"system": "HeLa S3", "test": "Cytotoxicity against human HeLa S3 cells assessed as cell growth inhibition incubated for 48 hrs by MTT assay", "type": "functional, cell-based", "conditions": "HeLa S3, 48 h"}, "HEp-2": {"system": "HEp-2", "test": "Cytotoxicity against human HEp-2 cells assessed as cell growth inhibition by measuring effective dose", "type": "functional", "conditions": "read-out: ED50 (the source's name)"}, "MDA-MB-231 [10]": {"system": "MDA-MB-231", "test": "Inhibition of cell growth in human MDA-MB-231 cells at 6 ug/ml incubated for 96 hrs", "type": "functional"}, "MCF7 [11]": {"system": "MCF7", "test": "Inhibition of cell growth in human MCF7 cells at 6 ug/ml incubated for 96 hrs", "type": "functional"}}, "data": [{"smiles": "CCCCCCCCCCN1C[C@@H](O)[C@@H](O)C1", "values": [{"measurement": "IC50", "setting": "K562 [1]", "value": 17.7, "unit": "µM"}]}, {"smiles": "CCCCCCCCCCCCCCCCOC[C@H](CO[C@@H]1O[C@H](CO)[C@@H](O)[C@H](O)[C@H]1N)OC", "values": [{"measurement": "CC50", "setting": "MIA PaCa-2", "value": 9, "unit": "µM"}, {"measurement": "CC50", "setting": "JIMT-1", "value": 9, "unit": "µM"}, {"measurement": "IC50", "setting": "MCF7 [2]", "value": 4.1, "unit": "µM"}, {"measurement": "CC50", "setting": "BT-474", "value": 8, "unit": "µM"}, {"measurement": "CC50", "setting": "DU-145", "value": 10, "unit": "µM"}]}, {"smiles": "COC[C@@H](C[C@H]1O[C@@](O)([C@H](O)[C@@H]2C[C@H](OC)[C@@H](O)CC/C=C(C)/C=C/[C@@H](O[C@@H]3O[C@@H](C)[C@H](OC)[C@@H](O)[C@@H]3O)[C@H](C)/C=C(C)/C=C(C)/C=C(/C)C(=O)O2)[C@H](C)[C@@H](O)[C@H]1C)O[C@H]1C[C@](C)(O)[C@@H](O[C@H]2C[C@@H](OC)[C@H](O)[C@@H](C)O2)[C@H](C)O1", "values": [{"measurement": "EC50", "setting": "NCI-H292", "value": 150, "unit": "nM"}]}, {"smiles": "CCCCOC(=O)CCCCCCC/C=C/CCCCCC[C@H](C)O[C@@H]1O[C@H](COC(C)=O)[C@@H](O)[C@H](O)[C@H]1O[C@@H]1O[C@H](COC(C)=O)[C@@H](O)[C@H](O)[C@H]1O", "values": [{"measurement": "inhibition at 25 µg/mL", "setting": "Jurkat", "value": 99.7, "unit": "%"}]}, {"smiles": "CCCCCCCCCCCCCCCCOC[C@H](CO[C@H]1C[C@@H](O)[C@H](O)[C@@H](CO)O1)OC", "values": [{"measurement": "GI50", "setting": "NCI/ADR-RES", "value": 12.8, "unit": "µM"}, {"measurement": "GI50", "setting": "L1210", "value": 7.09, "unit": "µM"}, {"measurement": "GI50", "setting": "MCF7 [3]", "value": 6.93, "unit": "µM"}, {"measurement": "GI50", "setting": "[4]", "value": 11.1, "unit": "µM"}]}, {"smiles": "C/C=C/C/C(C)=C\\[C@H]1C[C@H]2C=C[C@H](C[C@H](C)/C=C(\\C)[C@@H](OC)C/C=C/[C@@H](O[C@@H]3O[C@H](CO)[C@@H](O)[C@H](OC)[C@H]3O)CC(=O)O1)OO2", "values": [{"measurement": "IC50", "setting": "HeLa S3 [5]", "value": "> 10", "unit": "µM"}, {"measurement": "Ki", "setting": "[6]", "value": 18, "unit": "nM"}]}, {"smiles": "CC(=O)OC[C@H]1O[C@H]2O[C@@H](C)CCCCCC/C=C/CCCCCC(=O)O[C@@H]3[C@@H](O)[C@H](O[C@@H]2[C@@H](O)[C@@H]1O)O[C@H](COC(C)=O)[C@H]3O", "values": [{"measurement": "IC50", "setting": "HeLa", "value": 62.9, "unit": "µg/mL"}, {"measurement": "IC50", "setting": "Ca-Ski", "value": 82.2, "unit": "µg/mL"}]}, {"smiles": "CCCCCCCCO[C@@H]1O[C@@H](C)[C@H](OC(=O)CCCCC)[C@@H](O[C@@H]2O[C@@H](C)[C@H](OC(C)=O)[C@@H](O[C@@H]3O[C@@H](C)[C@H](OC(C)=O)[C@@H](O[C@@H]4O[C@@H](C)[C@H](O)[C@@H](O)[C@H]4O)[C@H]3OC(C)=O)[C@H]2OC(C)=O)[C@H]1O", "values": [{"measurement": "IC50", "setting": "A549", "value": 700, "unit": "nM"}, {"measurement": "IC50", "setting": "Col2", "value": 700, "unit": "nM"}, {"measurement": "IC50", "setting": "MDA-MB-231 [7]", "value": 700, "unit": "nM"}, {"measurement": "IC50", "setting": "KB", "value": 700, "unit": "nM"}, {"measurement": "IC50", "setting": "K562 [8]", "value": 700, "unit": "nM"}]}, {"smiles": "C/C=C\\C/C=C\\C/C=C\\C/C=C\\C/C=C\\CCCC(=O)OCC(CO[C@H]1O[C@H](CS(=O)(=O)O)[C@@H](O)[C@H](O)[C@H]1O)OC(=O)CCCCCCCCCCCCCCC", "note": "(stereo partly specified)", "values": [{"measurement": "IC50", "setting": "HeLa S3 [9]", "value": 80, "unit": "µM"}]}, {"smiles": "CCCCCCCCCCCC(=O)O[C@@H]1[C@@H](O)[C@@H](OC(=O)/C=C/c2ccccc2)[C@H](O[C@@H]2[C@@H](O)[C@@H](OC(=O)[C@@H](C)CC)[C@H](O[C@@H]3[C@@H](O)[C@H]4OC(=O)CCCCCCCCC[C@@H](CCCCC)O[C@@H]5O[C@H](CO)[C@@H](O)[C@H](O)[C@H]5O[C@@H]4O[C@H]3C)O[C@H]2C)O[C@H]1C", "values": [{"measurement": "EC50", "setting": "HEp-2", "value": 3.5, "unit": "µg/mL"}]}, {"smiles": "CC/C=C\\C/C=C\\C/C=C\\CCCCCCCC(=O)OC[C@@H](CO[C@@H]1O[C@H](CO)[C@H](O)[C@H](O)[C@H]1O)OC(=O)CCCCCCC/C=C\\C/C=C\\C/C=C\\CC", "values": [{"measurement": "inhibition at 6 µg/mL", "setting": "MDA-MB-231 [10]", "value": 90, "unit": "%"}, {"measurement": "inhibition at 6 µg/mL", "setting": "MCF7 [11]", "value": 90, "unit": "%"}]}, {"smiles": "CCOC(=O)CCCCCCC/C=C/CCCCCC[C@H](C)O[C@@H]1O[C@H](COC(C)=O)[C@@H](O)[C@H](O)[C@H]1O[C@@H]1O[C@H](COC(C)=O)[C@@H](O)[C@H](O)[C@H]1O", "values": [{"measurement": "inhibition at 25 µg/mL", "setting": "Jurkat", "value": 90, "unit": "%"}]}]}
